Assay results taken from PubChem BioAssay AID248 (DTP/NCI, 2004).
Values joined by “and” are separate entries in the source; they are usually repeats but may differ in a detail not shown here. Equal entries are not always repeated. Inconclusive results and toxic doses are left out.

Test system: L1210 leukemia ip in BDF1 mice, survival T/C
Assay: NCI In Vivo Anticancer Drug Screen. Data for tumor model L1210 Leukemia (intraperitoneal) in B6D2F1 (BDF1) mice
Details: endpoint: mean survival time, higher = longer survival
Outline: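 Transplantable tumor model; survival measured in treated vs vehicle control mice. Value = treated/control.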

[1] = dose: 2.5 mg/kg/injection, schedule: Q01DX001 (ip), vehicle: saline

CCCCCCCCSCCO
T/C (dose: 12.0 mg/kg/injection, schedule: Q01DX009 (ip), vehicle: saline with Tween-80): 104 % of control
T/C (dose: 25.0 mg/kg/injection, schedule: Q01DX009 (ip), vehicle: saline with Tween-80): 101 % of control
T/C (dose: 50.0 mg/kg/injection, schedule: Q01DX009 (ip), vehicle: saline with Tween-80): 95 % of control
T/C (dose: 50.0 mg/kg/injection, schedule: Q04DX003 (ip), vehicle: saline with Tween-80): 98 % of control
T/C (dose: 100.0 mg/kg/injection, schedule: Q04DX003 (ip), vehicle: saline with Tween-80): 96 % of control
T/C (dose: 200.0 mg/kg/injection, schedule: Q04DX003 (ip), vehicle: saline with Tween-80): 94 % of control
T/C (dose: 400.0 mg/kg/injection, schedule: Q04DX003 (ip), vehicle: saline with Tween-80): 98 % of control

CC1CN1CC(O)C(O)CN1CC1C (stereo not given)
T/C (dose: 0.07 mg/kg/injection, schedule: Q01DX Z (ip), vehicle: saline): 101 % of control
T/C (dose: 0.07 mg/kg/injection, schedule: Q01DX Z (ip), vehicle: water): 108 % of control
T/C (dose: 0.1 mg/kg/injection, schedule: Q01DX Z (ip), vehicle: saline): 106 % of control
T/C (dose: 0.1 mg/kg/injection, schedule: Q01DX Z (ip), vehicle: water): 110 % of control
T/C (dose: 0.15 mg/kg/injection, schedule: Q01DX Z (ip), vehicle: saline): 106 % of control and 110 % of control
T/C (dose: 0.15 mg/kg/injection, schedule: Q01DX Z (ip), vehicle: water): 118 % of control
T/C (dose: 0.22 mg/kg/injection, schedule: Q01DX Z (ip), vehicle: saline): 104 % of control and 114 % of control
T/C (dose: 0.22 mg/kg/injection, schedule: Q01DX Z (ip), vehicle: water): 124 % of control
T/C (dose: 0.26 mg/kg/injection, schedule: Q01DX009 (ip), vehicle: saline): 160 % of control
T/C (dose: 0.26 mg/kg/injection, schedule: Q04DX003 (ip), vehicle: saline): 117 % of control
T/C (dose: 0.31 mg/kg/injection, schedule: Q01DX001 (ip), vehicle: carboxymethylcellulose (CMC)): 105 % of control
T/C (dose: 0.33 mg/kg/injection, schedule: Q01DX015 (ip), vehicle: saline): 165 % of control
T/C (dose: 0.33 mg/kg/injection, schedule: Q01DX Z (ip), vehicle: saline): 121 % of control
T/C (dose: 0.4 mg/kg/injection, schedule: Q01DX009 (ip), vehicle: saline): 152 % of control
T/C (dose: 0.5 mg/kg/injection, schedule: Q01DX001 (ip), vehicle: saline): 108 % of control
T/C (dose: 0.5 mg/kg/injection, schedule: Q01DX015 (ip), vehicle: saline): 117 % of control
T/C (dose: 0.6 mg/kg/injection, schedule: Q01DX015 (ip), vehicle: saline): 163 % of control
T/C (dose: 0.62 mg/kg/injection, schedule: Q01DX001 (ip), vehicle: carboxymethylcellulose (CMC)): 121 % of control
T/C (dose: 1.0 mg/kg/injection, schedule: Q01DX001 (ip), vehicle: saline): 113 % of control
T/C (dose: 1.0 mg/kg/injection, schedule: Q01DX015 (ip), vehicle: saline): 153 % of control and 207 % of control
T/C (dose: 1.25 mg/kg/injection, schedule: Q01DX001 (ip), vehicle: carboxymethylcellulose (CMC)): 121 % of control
T/C (dose: 1.4 mg/kg/injection, schedule: Q04DX003 (ip), vehicle: saline): 153 % of control
T/C (dose: 1.8 mg/kg/injection, schedule: Q01DX015 (ip), vehicle: saline): 97 % of control and 116 % of control
T/C (dose: 2.0 mg/kg/injection, schedule: Q01DX015 (ip), vehicle: saline): 207 % of control and 221 % of control
T/C (dose: 2.1 mg/kg/injection, schedule: Q04DX003 (ip), vehicle: saline): 166 % of control
T/C (dose: 2.5 mg/kg/injection, schedule: Q01DX001 (ip), vehicle: carboxymethylcellulose (CMC)): 150 % of control
T/C [1]: 152 % of control
T/C (dose: 3.0 mg/kg/injection, schedule: Q01DX001 (ip), vehicle: saline): 102 % of control
T/C (dose: 3.0 mg/kg/injection, schedule: Q01DX015 (ip), vehicle: saline): 261 % of control
T/C (dose: 3.3 mg/kg/injection, schedule: Q04DX003 (ip), vehicle: saline): 160 % of control
T/C (dose: 4.0 mg/kg/injection, schedule: Q01DX001 (ip), vehicle: saline): 157 % of control
T/C (dose: 4.0 mg/kg/injection, schedule: Q01DX015 (ip), vehicle: saline): 166 % of control
T/C (dose: 5.0 mg/kg/injection, schedule: Q01DX001 (ip), vehicle: carboxymethylcellulose (CMC)): 152 % of control
T/C (dose: 5.0 mg/kg/injection, schedule: Q01DX001 (ip), vehicle: saline): 158 % of control
T/C (dose: 5.5 mg/kg/injection, schedule: Q01DX001 (ip), vehicle: saline): 157 % of control
T/C (dose: 7.5 mg/kg/injection, schedule: Q04DX003 (ip), vehicle: saline): 95 % of control and 257 % of control
T/C (dose: 8.0 mg/kg/injection, schedule: Q01DX015 (ip), vehicle: saline): 122 % of control and 86 % of control and 87 % of control
T/C (dose: 10.0 mg/kg/injection, schedule: Q01DX001 (ip), vehicle: carboxymethylcellulose (CMC)): 236 % of control
T/C (dose: 10.0 mg/kg/injection, schedule: Q01DX001 (ip), vehicle: saline): 210 % of control
T/C (dose: 11.0 mg/kg/injection, schedule: Q01DX001 (ip), vehicle: saline): 247 % of control and 108 % of control and 116 % of control
T/C (dose: 15.0 mg/kg/injection, schedule: Q01DX001 (ip), vehicle: saline): 250 % of control
T/C (dose: 20.0 mg/kg/injection, schedule: Q01DX001 (ip), vehicle: saline): 91 % of control
T/C (dose: 22.0 mg/kg/injection, schedule: Q01DX001 (ip), vehicle: saline): 168 % of control
T/C (dose: 25.0 mg/kg/injection, schedule: Q01DX001 (ip), vehicle: saline): 120 % of control
T/C (dose: 30.0 mg/kg/injection, schedule: Q01DX001 (ip), vehicle: saline): 87 % of control
T/C (dose: 41.0 micrograms/kg/injection, schedule: Q01DX015 (ip), vehicle: saline): 104 % of control
T/C (dose: 50.0 micrograms/kg/injection, schedule: Q01DX009 (ip), vehicle: saline): 101 % of control
T/C (dose: 62.0 micrograms/kg/injection, schedule: Q01DX015 (ip), vehicle: saline): 108 % of control
T/C (dose: 75.0 micrograms/kg/injection, schedule: Q01DX009 (ip), vehicle: saline): 104 % of control
T/C (dose: 113.0 micrograms/kg/injection, schedule: Q01DX009 (ip), vehicle: saline): 110 % of control
T/C (dose: 140.0 micrograms/kg/injection, schedule: Q01DX001 (ip), vehicle: saline): 113 % of control
T/C (dose: 210.0 micrograms/kg/injection, schedule: Q01DX001 (ip), vehicle: saline): 120 % of control

CCCNC(=O)NO
T/C (dose: 100.0 mg/kg/injection, schedule: Q01DX001 (ip), vehicle: carboxymethylcellulose (CMC)): 103 % of control
T/C (dose: 150.0 mg/kg/injection, schedule: Q01DX009 (ip), vehicle: other): 105 % of control
T/C (dose: 200.0 mg/kg/injection, schedule: Q01DX001 (ip), vehicle: carboxymethylcellulose (CMC)): 100 % of control
T/C (dose: 400.0 mg/kg/injection, schedule: Q01DX001 (ip), vehicle: carboxymethylcellulose (CMC)): 105 % of control

C=CCN(CC=C)C(=S)Nc1cccc(Cl)c1
T/C (dose: 100.0 mg/kg/injection, schedule: Q01DX001 (ip), vehicle: other): 103 % of control
T/C (dose: 200.0 mg/kg/injection, schedule: Q01DX001 (ip), vehicle: other): 100 % of control
T/C (dose: 400.0 mg/kg/injection, schedule: Q01DX001 (ip), vehicle: other): 100 % of control

CC1=CC23C(COC(=O)C24CO4)C(C(=O)O)=CC3C1C (stereo not given) (tested in a mixture with another compound)
T/C (dose: 1.2 mg/kg/injection, schedule: Q01DX001 (ip), vehicle: saline): 101 % of control
T/C [1]: 100 % of control

CCCNC(=O)Nc1ccc(Cl)c(Cl)c1
T/C (dose: 100.0 mg/kg/injection, schedule: Q01DX001 (ip), vehicle: saline): 100 % of control
T/C (dose: 200.0 mg/kg/injection, schedule: Q01DX001 (ip), vehicle: saline): 93 % of control
T/C (dose: 400.0 mg/kg/injection, schedule: Q01DX001 (ip), vehicle: saline): 92 % of control

COc1ccccc1OS(=O)(=O)c1ccc(COc2ccc([N+](=O)[O-])cc2Cl)cc1
T/C (dose: 100.0 mg/kg/injection, schedule: Q01DX001 (ip), vehicle: Klucel (hydroxypropylcellulose) (HPC)): 93 % of control
T/C (dose: 200.0 mg/kg/injection, schedule: Q01DX001 (ip), vehicle: Klucel (hydroxypropylcellulose) (HPC)): 98 % of control
T/C (dose: 400.0 mg/kg/injection, schedule: Q01DX001 (ip), vehicle: Klucel (hydroxypropylcellulose) (HPC)): 96 % of control

CCOC(CSC)OCC
T/C (dose: 100.0 mg/kg/injection, schedule: Q01DX009 (sc), vehicle: olive oil, sesame oil, peanut oil): 99 % of control
T/C (dose: 100.0 mg/kg/injection, schedule: Q04DX003 (sc), vehicle: olive oil, sesame oil, peanut oil): 102 % of control
T/C (dose: 200.0 mg/kg/injection, schedule: Q01DX009 (sc), vehicle: olive oil, sesame oil, peanut oil): 94 % of control
T/C (dose: 200.0 mg/kg/injection, schedule: Q04DX003 (sc), vehicle: olive oil, sesame oil, peanut oil): 96 % of control
T/C (dose: 400.0 mg/kg/injection, schedule: Q01DX009 (sc), vehicle: olive oil, sesame oil, peanut oil): 91 % of control
T/C (dose: 400.0 mg/kg/injection, schedule: Q04DX003 (sc), vehicle: olive oil, sesame oil, peanut oil): 94 % of control
